Experimental data reported in BindingDB's records for doi:10.1016/s0960-894x(03)00136-7 (2003).

Target: Serine/threonine-protein phosphatase 2A catalytic subunit alpha (Homo sapiens) (UniProt P67775)
Experiment: Inhibitory activity against protein phosphatase (PP2A) using fluorescein diphosphate as substrate

Chain of Serine/threonine-protein phosphatase 2A catalytic subunit alpha (Homo sapiens) (P67775 whole entry, looked up): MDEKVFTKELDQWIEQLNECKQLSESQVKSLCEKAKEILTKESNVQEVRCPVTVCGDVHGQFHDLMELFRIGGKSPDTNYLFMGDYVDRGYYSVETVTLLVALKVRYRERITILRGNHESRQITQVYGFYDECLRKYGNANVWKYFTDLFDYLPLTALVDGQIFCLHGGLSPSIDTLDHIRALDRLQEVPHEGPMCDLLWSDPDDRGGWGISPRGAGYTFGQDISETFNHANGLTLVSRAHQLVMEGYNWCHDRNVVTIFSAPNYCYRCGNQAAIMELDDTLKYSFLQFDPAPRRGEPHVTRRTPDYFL

IC50 | Compound
< 10 µM | CC(C)(O)[C@H]1CC[C@](C)([C@@H](O)CC[C@](O)(CO)C2=CC[C@H]3O[C@@H]([C@]4(C)CC[C@@H](Br)C(C)(C)O4)CC[C@]3(C)O2)O1
< 10 µM | C=C([C@@H](O)C[C@H](O)[C@@]1(C)CC[C@H](C(C)(C)O)O1)[C@H]1CC[C@H]2O[C@@H]([C@]3(C)CC[C@@H](Br)C(C)(C)O3)CC[C@]2(C)O1
